The values below are quoted from earlier work in patent publication US20260198506A1, “Broad-Spectrum Organic Fungicide & Bactericide” (Ecolution.AG LLC, priority 2020, published 2026).

The test system of this data set is Gram-positive bacteria. The note with it: due to outer cell membrane impermeability of Gram-negatives.

On to `O=C(O)C1=C[C@@H](O)[C@@H](O)[C@H](O)C1` [shikimic acid], for which the antibacterial activity spectrum result is listed as “active only against Gram-positive bacteria”.
